# Laboratory results taken from article PMC3098219, “Protective Efficacy of Serially Up-Ranked Subdominant CD8^+ T Cell Epitopes against Virus Challenges” (PLoS Pathogens, 2011).
# “Also recorded” adds a separate entry of the source.
# How the values were obtained:
# [1] = test system: CD8^+ splenocytes of immunized mice; assay type: cell-based, BALB/c mice; settings: HIVAdH vs HIVA immunization; ex vivo ICS, Figure 1D
# [2] = test system: syngeneic peptide-pulsed cells; assay: in vivo killing assay (lysis of syngeneic peptide-pulsed cells); design: species or system BALB/c mice; settings: HIVAdH vaccinated relative to HIVA vaccination; Figure 1F
# [3] = test system: H-2D^d, H-2K^d or H-2L^d complexes; assay: T2 peptide binding assay, respective MHC class I complexes; settings: Figure 3A; TAP-deficient T2 cells, 100 µM to 0.1 µM peptide, 14 h at 37°C, FACS
# Protocol: Figure 3 Contributing mechanisms of immunodominance. […] T2 cell lines were incubated with decreasing peptide concentrations ranging from 100 µM to 0.1 µM indicated above the H peptide histogram and the cell surface peptide-loaded MHC complexes were detected by fluorochrome-conjugated mAb (DB Biosciences) and quantified using FACS flow cytometer. B) and C) Groups of 3 BALB/c mice were given 3x immunizations using 100 µg of DNA expressing the index or mutated forms of HIVA at 3 wk intervals and their T cell responses were analyzed 4 wk later. B) Splenocytes were assessed in an ICS assay using peptides indicated above the graphs at concentrations ranging from 10 to 10^−8 µM for 5 h. Cells were gated on IFN-γ-producing CD8^+ T cell populations positive (top) or negative (bottom) for CD107a/b. Note the different y-axis scales on the top and bottom graphs. C) The response kinetics of CD8^+ T cells re-stimulated with 0.1 µM peptides was assessed in an ICS assay in 1-h intervals for a period of 4 h. Data shown are as mean±SD of [CD8^+CD107a/b^+IFN-γ^+ cells at each time point (%)] ÷ [CD8^+CD107a/b^+IFN-γ^+ at 4 h (%)]. One out of two independent experiments is shown.
# TAP2 ([…])-deficient T2 cell lines stably expressing D^d, K^d, and L^d molecules kindly provided by Dr. Ted Hansen (Washington university, U.S.A.) were used to assess the ability of MHCs to bind each peptide. In brief, 1×10^5 cells were incubated with 0/0.1/1.0/10/100 µM peptides in no-serum RPMI (R-0) for 14 h at 37°C, 5% CO2 in a flat-bottomed 96-well plate. 14 h later, cells were transferred to a round-bottomed 96-well plate and washed with PBS before staining the cells with anti-H-2K^d/H-2D^d-PE or anti-H-2L^d-PE (eBioscience) monoclonal antibodies. Cells were then analyzed on a FACS flow cytometer.
# CD8^+ T cells = assay: Immunodominance hierarchy of T cell responses to HIVA-derived epitopes; assay type: cell-based, BALB/c mice; settings: 10 d after immunization
# [4] = test system: splenocytes of DNA-immunized mice; assay: IFN-γ ELISPOT and ICS with modified HIVA immunogens; assay type: cell-based, BALB/c mice; settings: dHmP-immunized group; ELISPOT, ICS and in vivo killing
# Description: To further investigate this phenomenon, we serially inactivated CD8^+ T cell epitopes in the order of their immunodominance. To maintain the HIVA protein integrity, epitopes P and G1 were mutated rather than deleted by substituting the anchor amino acid residues required for a strong binding to the H-2K^d molecule (Figure 2A). The resulting double and triple mutants of the HIVA immunogen were called dHmP and dHmPG1, respectively. […] Groups of BALB/c mice were immunized 2x using the modified HIVA immunogens vectored by plasmid DNA and the immune responses were measured in IFN-γ ELISPOT, ICS and in vivo killing assays. […] Second, consistently in all three assays, immune responses directed against subdominant epitopes were serially recovered, however, not to the same extent. […] Because the response to the G2 epitope remained undetectable even in the dHmPG1-immunized mice, overlapping 15/11 peptides across the whole HIVA immunogen were used again to search for another yet unidentified epitope of a higher rank. […] (Figure 2D). […] Thus, step-wise deletion of immunodominant CD8^+ T cell epitopes restores responses to the subdominant epitopes in the hierarchy.
# Figure 2 Serial up-ranking of epitopes. A) Groups of 4 BALB/c mice were immunized 2x i.m. with 100 µg of DNA at a 2-wk interval. Two wk later, splenocytes were assessed in an ELISPOT assay for production of IFN-γ upon re-stimulation with peptides indicated above. Shown are schematic diagrams of HIVA and the three modified immunogens with representative examples of the ELISPOT well images. B) Mice were immunized as in A and 4 wk later, splenocytes were assessed in an ICS assay to measure CD8^+ T cells secreting IFN-γ upon re-stimulation with peptide indicated in the top left corner. Group means±SD are shown. C) Identical groups of mice were assessed for cytolytic activity in an in vivo lysis of syngeneic peptide-pulsed cells transferred into naïve or vaccinated animals. Representative examples of dot plots are shown (top) and the peptide-specific lyses are expressed as a group mean±SD (bottom). D) Groups of 3 BALB/c mice were immunized 3x with 100 µg of DNA indicated above the dot plot in 2-wk intervals and the designated NPP peptide-specific responses were assessed by IFN-γ ICS 2 wk later. The FACS plots are representative examples with IFN-γ producing cells as a percentage of CD8^+ splenocytes shown in the top right panels. All experiments were repeated at least once. TEXT PRINTED IN THE PICTURE: (D) HIVA: 0.05 | (D) HIVAdH: 0.09 | (D) dHmP: 0.08 | (D) dHmPG1: 0.57 DOUBTS OF THE COPYIST ABOUT THIS PICTURE: Panel D: the numbers in the top right quadrants of the CD8 / IFN-γ dot plots are printed without a measure or unit, so they are copied as bare numbers.
# The ELISPOT assay was performed using the Mouse IFN-γ ELISpot kit (Mabtech) according to the manufacturer's instructions. Spots were visualised using sequential applications of a biotin-conjugated secondary anti-IFN-γ mAb (R4-6A2, Rat IgG1), an alkaline phosphatase and a chromogenic substrate (Bio-Rad) and counted using the AID ELISpot Reader System (Autoimmun Diagnostika).
# [5] = test system: splenocytes of pTHr.HIVA immunized mice; assay: IFN-γ ELISPOT immunogenicity of HIVA; assay type: cell-based, BALB/c mice; settings: Figure 1B and D top
# H-2K^d = H-2K^d (Mus musculus, UniProt P01902); settings: ref [34]; cited from earlier work
# Description: Our research interests lie in development of the T cell component of HIV-1 vaccines stimulating protective CD8^+ T cell responses. The first-generation T cell immunogen, designated HIVA (Figure 1A), has served as an extremely useful tool for iterative improving of CD8^+ T cell induction by experimental vaccines in mice, non-human primates and humans [reviewed in [30]]. To increase the power of T cell analysis and study the role of subdominant determinants, H-2^d class I-restricted epitopes contained in the HIVA immunogen were mapped in detail. Thus, the most immunodominant epitope of ...
# EcoHIV/NDK = EcoHIV/NDK challenge; settings: Figure 7C and D; 2x 100 µg DNA, challenge 5 d later; splenocytes and peritoneal macrophages, qPCR
# Chain of H-2K^d (P01902 whole entry, looked up): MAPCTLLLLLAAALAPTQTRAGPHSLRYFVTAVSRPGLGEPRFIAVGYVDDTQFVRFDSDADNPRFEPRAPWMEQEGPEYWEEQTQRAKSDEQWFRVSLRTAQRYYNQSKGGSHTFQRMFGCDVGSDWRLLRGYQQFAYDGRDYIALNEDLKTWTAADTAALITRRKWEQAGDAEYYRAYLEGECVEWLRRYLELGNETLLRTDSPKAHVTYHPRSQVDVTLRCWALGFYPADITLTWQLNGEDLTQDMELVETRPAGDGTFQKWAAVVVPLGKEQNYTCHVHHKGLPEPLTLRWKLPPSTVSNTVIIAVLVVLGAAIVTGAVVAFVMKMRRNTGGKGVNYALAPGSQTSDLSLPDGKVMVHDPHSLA
sequence,measurement,setting,value
AMQMLKDTI [G1],frequencies of IFN-γ-producing CD8^+ cells,[1],"noticeably, though not significantly increased"
same,in vivo lysis of peptide-pulsed targets,[2],increased in vivo lysis
same,peptide binding affinities for respective MHC class I,[3],directly correlated with the immunodominance hierarchy
same,hierarchy of T cell responses against HIVA-derived epitopes,CD8^+ T cells,H>P>>G1>NPP>>G2
same,restoration of G1-specific T cell responses,[4],"significant restoration of G1-specific T cell responses, now comparable to those against H and restored P"
same,T cell response to G1 from HIVA,[5],hardly detectable responses
same,MHC class I restriction (H-2K^d),H-2K^d,H-2K^d-restricted
same,protection against EcoHIV/NDK challenge,EcoHIV/NDK,sufficient to induce protective efficacy; also recorded: enhanced clearance of EcoHIV/NDK infection
